Molecules are shown by their SMILES.

For the assay, the target named is 15-PGDH (Homo sapiens (Human), UniProt P15428). Description: Detection of activity of 15-PGDH enzyme. The note with it: inhibitory activity against 15-PGDH enzyme; substrates β-NAD and PGF2α; fluorescence Ex/Em=340/450. The format is biochemical. On the procedure: • a. A solution of pH 7.5 containing 50 mM Tris-HCl, 0.01% Tween 20 was prepared with ultrapure water as a reaction buffer; • b. A 10 mM mother liquor of the compound to be tested was prepared with DMSO, and then the reaction buffer was used to dilute the mother liquor of the compound to be tested to obtain solution 1 of the compound to be tested at a concentration of 40,000 nM, and then the solution 1 of the compound to be tested was serially diluted into solutions 2-9 (or 2-12) of the compound to be tested at 9 (or 11) concentrations with a gradient difference of three-fold. 5 μL of each concentration of solutions of the compound to be tested was respectively taken and added into a 384-well plate as test wells; • c. 5 μL of the reaction buffer was then added to the blank wells of the 384-well plate as positive control and blank control wells, respectively; • d. The reaction buffer was used to prepare a 15-PGDH protein solution at a concentration of 5 ng/μL, 5 μL of the 15-PGDH protein solution was taken and added to the test wells and positive control wells, and meanwhile 5 μL of the reaction buffer was added to the blank control wells, then the plate was centrifuged at 2000 rpm for 30 seconds; • e. The reaction buffer was used to prepare 5 mM $3-NAD and 2 mM PGF2α, respectively, which were mixed at 1:1 by volume to obtain a substrate mixture, 10 μL of the substrate mixture was taken and added to the test wells, positive control wells and blank control wells to start the reaction; • f. The fluorescence signal value (Ex/Em=340/450) of each well was detected continuously by using a multifunctional microplate reader.
Chain of 15-PGDH (P15428 whole entry): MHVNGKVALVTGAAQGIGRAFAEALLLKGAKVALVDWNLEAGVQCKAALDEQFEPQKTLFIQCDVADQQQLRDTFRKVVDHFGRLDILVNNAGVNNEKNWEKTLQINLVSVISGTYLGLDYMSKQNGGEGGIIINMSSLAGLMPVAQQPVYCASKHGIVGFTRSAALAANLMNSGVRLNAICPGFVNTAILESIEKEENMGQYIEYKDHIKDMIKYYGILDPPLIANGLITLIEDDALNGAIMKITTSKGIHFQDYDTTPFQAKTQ
• a) Continuous fluorescence signal values were analyzed by using the “kinetic calculations-slope calculation method” in the PHERAstar Data analysis software to obtain the slope of each test well; • b) The inhibition rate % was calculated by using the following formula: inhibition rate %=[1−(slope of test well-signal value of positive control well)/(signal value of blank control well-average signal value of positive control well)]×100%. • c) Calculation of IC50 and plotting of inhibition rate-dose curves: IC50 values were calculated by fitting compound concentrations and corresponding inhibition rates with a nonlinear regression (dose response-variable slope) via using GraphPad Prism 6.0. The formula was shown below:
Y=Bottom+(Top−Bottom)/(1+10^((Log IC50−X)*HillSlope)), wherein X is a log value of a concentration of the compound, and Y is inhibition rate %.
One may read the IC50 as the concentration needed to halve the response being measured. Higher therefore signals weaker potency. With `COc1ncc(-c2cnc3c(C4CC4)c(C(=O)N4CCCCC4)sc3n2)cn1` [Example 5], the IC50 was less than 3 nM.
As for `O=C(c1sc2nc(-c3cncs3)cnc2c1C1CC1)N1CCCCC1` [Example 29], the IC50 lay in the range of 3 to 10 nM.
Molecule `CN(C)c1ncc(-c2cnc3c(C#N)c(C(=O)N4CCCCC4)sc3n2)cn1` [Example 58] came in with an IC50 of 3 to 10 nM.
The molecule `Cc1ccc(-c2cnc3c(C#N)c(C(=O)N4CCCCC4)sc3n2)cn1` [Example 51] yielded a 50% inhibitory concentration (IC50) of 10 to 20 nM.
The molecule `COc1ccc(-c2cnc3c(C#N)c(C(=O)N4CCCCC4)sc3n2)cn1` [Example 50] came in with an IC50 of 10 to 20 nM.
Consider `O=C(c1sc2nc(-c3ccc4ncsc4c3)cnc2c1C1CC1)N1CCCCC1` [Example 13], for which the IC50 is 3 to 10 nM.
The value for `COc1ncc(-c2cnc3c(C(F)(F)F)c(C(=O)N4CCCCC4)sc3n2)cn1` [Example 64, (3-(2-methoxypyrimidin-5-yl)-7-(trifluoromethyl)thieno[2,3-b]pyrazin-6-yl)(piperidin-1-yl)methanone] was 3 to 10 nM.
The value for `COc1ccc(-c2cnc3c(C(F)(F)F)c(C(=O)N4CCCCC4)sc3n2)cn1` [Example 80] was 3 to 10 nM; that for `O=C(c1sc2nc(-c3ccc4nccn4c3)cnc2c1C1CC1)N1CCCCC1` [Example 12] was less than 3 nM; that for `COc1ccc(-c2cnc3c(C4CC4)c(C(=O)N4CCCCC4)sc3n2)cn1` [Example 23] was 10 to 20 nM.
`O=C(c1sc2nc(-c3cncs3)cnc2c1C(F)(F)F)N1CCCCC1` [Example 86] registered an IC50 of 3 to 10 nM.
`N#Cc1c(C(=O)N2CCCCC2)sc2nc(-c3cncnc3)cnc12` [Example 61] came in with an IC50 of 3 to 10 nM.
In turn, `O=C(c1sc2nc(-c3ccccc3)cnc2c1O)N1CCCCC1` [Example 101] registered an IC50 of 50 to 100 nM.
On to `N#Cc1c(C(=O)N2CCCCC2)sc2nc(-c3ccc4nccn4c3)cnc12` [Example 47], for which the IC50 lay in the range of 3 to 10 nM.

Source of the values: patent US20260001892A1, “COMPOUND FOR REGULATING AND CONTROLLING ACTIVITY OF 15-PGDH AND PREPARATION METHOD THEREFOR” (SCINNOHUB PHARMACEUTICAL CO., LTD., priority 2022, published 2026).
